Measured values: US4997849A, “Microbial transformation of simvastatin” (Merck & Co., Inc., priority 1989, dated 1991)

Columns and labels:
[1] = target: T1, HMG-CoA reductase (Rattus norvegicus, UniProt P51639); assay: intrinsic HMG-CoA reductase inhibition activity, in vitro protocol of J. Med. Chem., 1985, 28, page 347; type: biochemical; settings: potassium salt
T1 construct: from tissue
T1 sequence (P51639 1-887): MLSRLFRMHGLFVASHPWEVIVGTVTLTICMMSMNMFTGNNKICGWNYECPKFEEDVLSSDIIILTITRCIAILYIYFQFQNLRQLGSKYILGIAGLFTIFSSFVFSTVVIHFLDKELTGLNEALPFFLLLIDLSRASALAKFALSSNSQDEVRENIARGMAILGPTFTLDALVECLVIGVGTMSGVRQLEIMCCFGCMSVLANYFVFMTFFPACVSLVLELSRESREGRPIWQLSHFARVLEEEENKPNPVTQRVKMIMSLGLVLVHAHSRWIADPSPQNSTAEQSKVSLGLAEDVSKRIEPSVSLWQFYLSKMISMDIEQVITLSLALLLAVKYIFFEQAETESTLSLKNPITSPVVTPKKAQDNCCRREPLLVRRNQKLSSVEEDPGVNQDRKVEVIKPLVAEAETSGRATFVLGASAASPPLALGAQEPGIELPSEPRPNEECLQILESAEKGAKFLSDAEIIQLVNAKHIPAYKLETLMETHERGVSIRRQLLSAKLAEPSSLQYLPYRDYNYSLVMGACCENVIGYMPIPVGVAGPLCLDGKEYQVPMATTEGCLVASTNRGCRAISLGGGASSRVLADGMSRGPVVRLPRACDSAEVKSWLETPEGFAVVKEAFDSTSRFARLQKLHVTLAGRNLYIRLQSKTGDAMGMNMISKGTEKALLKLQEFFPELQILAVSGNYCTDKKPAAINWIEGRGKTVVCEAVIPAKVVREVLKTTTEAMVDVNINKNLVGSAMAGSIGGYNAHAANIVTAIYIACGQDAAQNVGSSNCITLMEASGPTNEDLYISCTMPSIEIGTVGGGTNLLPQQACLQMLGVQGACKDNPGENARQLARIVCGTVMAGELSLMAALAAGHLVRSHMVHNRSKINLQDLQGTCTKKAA
Protocol: The intrinsic HMG-CoA reductase inhibition activity of the claimed compounds is measured in the in vitro protocol described in J. Med. Chem., 1985, 28, page 347.

[2] = reversion of free dihydroxy acid to parent lactone on standing; type: physicochemical; settings: on standing at room temperature
Protocol: The sodium salt of the compound II from Example 8 is dissolved in 2 ml of ethanol-water (1:1; v:v) and added to 10 ml of 0.1N hydrochloric acid from which the dihydroxy acid is extracted with ethyl acetate. The organic extract is washed once with water, dried (Na2 SO4), and evaporated in vacuo with a bath temperature not exceeding 30° C.

[3] = target: T2, HMG-CoA reductase (Homo sapiens, UniProt P04035); settings: relative to lovastatin; cited from earlier work
T2 sequence (P04035 1-888): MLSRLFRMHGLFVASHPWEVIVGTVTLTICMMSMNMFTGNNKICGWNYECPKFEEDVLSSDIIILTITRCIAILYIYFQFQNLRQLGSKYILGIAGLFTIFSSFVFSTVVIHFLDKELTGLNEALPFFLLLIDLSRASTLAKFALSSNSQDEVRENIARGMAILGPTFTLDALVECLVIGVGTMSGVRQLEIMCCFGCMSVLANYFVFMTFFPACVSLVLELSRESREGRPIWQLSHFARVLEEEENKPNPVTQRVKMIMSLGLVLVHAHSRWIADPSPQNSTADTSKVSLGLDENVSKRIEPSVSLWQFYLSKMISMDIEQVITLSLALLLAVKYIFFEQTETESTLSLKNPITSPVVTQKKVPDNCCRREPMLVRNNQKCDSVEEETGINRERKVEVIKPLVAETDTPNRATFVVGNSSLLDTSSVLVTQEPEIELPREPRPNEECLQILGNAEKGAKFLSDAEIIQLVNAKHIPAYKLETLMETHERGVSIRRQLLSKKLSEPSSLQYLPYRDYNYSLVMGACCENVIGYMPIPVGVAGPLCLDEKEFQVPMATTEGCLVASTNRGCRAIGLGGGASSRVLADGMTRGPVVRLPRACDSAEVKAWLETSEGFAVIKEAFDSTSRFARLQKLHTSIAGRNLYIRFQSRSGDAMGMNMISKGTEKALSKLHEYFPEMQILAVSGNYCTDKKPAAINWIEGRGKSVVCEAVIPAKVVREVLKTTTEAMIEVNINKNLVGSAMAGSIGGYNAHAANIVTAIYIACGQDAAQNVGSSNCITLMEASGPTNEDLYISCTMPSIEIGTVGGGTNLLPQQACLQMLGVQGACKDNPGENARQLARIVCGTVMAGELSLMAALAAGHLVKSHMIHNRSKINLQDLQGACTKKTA

## CC1C=Cc2cc(CO)ccc2C1CC[C@@H](O)C[C@@H](O)CC(=O)O (stereo partly drawn)
[1]
  IC50: 897 nM

## CC1C=Cc2cc(CO)ccc2C1CC[C@@H](O)C[C@@H](O)CC(=O)O (stereo partly drawn) [dihydroxy acid derivative]
[2]
  reversion to the corresponding parent lactone: slowly reverts to the corresponding parent lactone on standing at room temperature

## CCC(C)(C)C(=O)O[C@H]1C[C@@H](C)C=C2C=C[C@H](C)[C@H](CC[C@@H]3C[C@@H](O)CC(=O)O3)[C@H]21 [simvastatin]
[3]
  HMG-CoA reductase inhibitor potency compared with lovastatin: even more potent HMG-CoA reductase inhibitor than lovastatin
